From ChEMBL document CHEMBL5523681, “Lysosome-targeted Aza-BODIPY photosensitizers for anti-cancer photodynamic therapy” (Bioorg Med Chem, 2024)
pEC50, pIC50: −log10 of the molar value. Activity calls are given as the source filed them. The rule behind the calls is not given here.

What was measured:
[1] = Dark toxicity in human HepG2 cells incubated for 3 hrs by CCK-8 assay; assay type: cell-based
HepG2 = assay: Cytotoxicity against human HepG2 cells preincubated with compound for 3 hrs followed by 81 J/cm2 light irradiation and measured after 24 hrs by CCK8 assay; assay type: functional, cell-based; conditions: HepG2, light or radiation study
[2] = Ratio of relative degradation rate of DPBF in PBS at pH 5.2 in presence of HCl to relative degradation rate of DPBF in PBS at pH 7; assay type: physicochemical; conditions: buffer
[3] = Photosensitizing ability of the compound in PBS at pH 7.4 assessed as singlet oxygen production by measuring relative degradation rate of DPBF at 411 nm under photoirradiation with 90 mW/cm2 light by absorbance based assay; assay type: functional
[4] = Photosensitizing ability of the compound in DMF at pH 7 assessed as singlet oxygen quantum yield; assay type: functional
[5] = Stability of compound in DMF under dark condition; assay type: physicochemical
HeLa [6] = assay: Cytotoxicity against human HeLa cells preincubated with compound for 3 hrs followed by 81 J/cm2 light irradiation and measured after 24 hrs by CCK8 assay; assay type: functional, cell-based; conditions: light or radiation study
B16-F10 = assay: Cytotoxicity against mouse B16-F10 cells preincubated with compound for 3 hrs followed by 81 J/cm2 light irradiation and measured after 24 hrs by CCK8 assay; assay type: functional, cell-based; conditions: B16-F10, light or radiation study
[7] = Ratio of singlet oxygen quantum yield in DMF at pH 5.2 in presence of HCl to singlet oxygen quantum yield in DMF at pH 7; assay type: functional
[8] = Stability of compound in CH3CN under dark condition; assay type: physicochemical
[9] = Photostability of compound in emulsified PBS buffer in presence of […] light irradiation measured upto 10 mins by absorption based assay; assay type: physicochemical
[10] = Dark toxicity in human HeLa cells incubated for 3 hrs by CCK-8 assay; assay type: cell-based
[11] = Photosensitizing ability of the compound in DMF at pH 5.2 assessed as singlet oxygen quantum yield in presence of HCl; assay type: functional
[12] = Photosensitizing ability of the compound in PBS at pH 5.2 in presence of HCl assessed as singlet oxygen production by measuring relative degradation rate of DPBF at 411 nm under photoirradiation with 90 mW/cm2 light by absorbance based assay; assay type: functional
[13] = Stability of compound in emulsified PBS buffer under dark condition; assay type: physicochemical
[14] = Dark toxicity in mouse B16-F10 cells incubated for 3 hrs by CCK-8 assay; assay type: cell-based
[15] = Drug uptake in spleen of female BALB/c nude mouse xenografted with human HeLa cells at 2 mg/kg, iv measured after 3 hrs by fluorescence imaging analysis; assay type: ADME, organism-based; conditions: in vivo
[16] = Drug uptake in lung of female BALB/c nude mouse xenografted with human HeLa cells at 2 mg/kg, iv measured after 3 hrs by fluorescence imaging analysis; assay type: ADME, organism-based; conditions: in vivo
[17] = Drug uptake in female BALB/c nude mouse xenografted with human HeLa cells at 2 mg/kg, iv measured after 3 hrs by fluorescence imaging analysis; assay type: ADME, organism-based; conditions: in vivo
HeLa [18] = assay: Antitumor activity against human HeLa cells xenografted in female BALB/c nude mouse assessed as reduction in tumor size at 2 mg/kg, iv preadministered with compound for 3 hrs followed by 54 J/cm2 light irradiation and measured after 24 days relative to control; assay type: functional; parameters: scale not given: the % may be the effect or the level left; conditions: time 24 day
[19] = Drug localization in lysosome of human HeLa cells at 5 uM incubated for 3 hrs by Lyso-tracker blue dye based confocal scanning microscopic analysis; assay type: ADME, subcellular
HeLa [20] = assay: Antitumor activity against human HeLa cells xenografted in female BALB/c nude mouse assessed as inhibition of tumor growth at 2 mg/kg, iv preadministered with compound for 3 hrs followed by 54 J/cm2 light irradiation and measured after 24 days; assay type: functional, organism-based; conditions: time 24.0 day
[21] = Toxicity in female BALB/c nude mouse xenografted with human HeLa cells assessed as decrease in body weight at 2 mg/kg, iv preadministered with compound for 3 hrs followed by 54 J/cm2 light irradiation and measured after 24 days; assay type: organism-based; conditions: in vivo, 576 h, time 24 day
[22] = Fluorescence property of compound assessed as quantum yield; assay type: physicochemical
HeLa [23] = assay: Induction of ROS production in human HeLa cells assessed as increase in fluorescence intensity at 20 to 500 nM incubated for 3 hrs in presence of 81 J/cm2 light irradiation by confocal scanning microscopic analysis; assay type: functional, cell-based; conditions: dose 20-500 nM
[24] = Drug uptake in human HeLa cells assessed as increase in fluorescence intensity at 5 uM by confocal scanning microscopic analysis; assay type: ADME, cell-based; conditions: 5 h, TDE = time-dependent effect
[25] = Drug localization in endoplasmic reticulum of human HeLa cells at 5 uM incubated for 3 hrs by ER-Tracker blue dye based confocal scanning microscopic analysis; assay type: ADME, subcellular
[26] = Drug localization in mitochondria of human HeLa cells at 5 uM incubated for 3 hrs by Mito-tracker green dye based confocal scanning microscopic analysis; assay type: ADME
[27] = Drug uptake in liver of female BALB/c nude mouse xenografted with human HeLa cells at 2 mg/kg, iv measured after 3 hrs by fluorescence imaging analysis; assay type: ADME, organism-based; conditions: in vivo
[28] = Drug uptake in mouse B16-F10 cells measured after 4 hrs by confocal scanning microscopic analysis; assay type: ADME, cell-based; conditions: b16-f10, 4 h
[29] = Fluorescence property of compound assessed as quantum yield in CHCl3 by spectroscopic analysis; assay type: physicochemical
[30] = Toxicity in female BALB/c nude mouse xenografted with human HeLa cells assessed as decrease in body weight at 2 mg/kg, iv preadministered with compound for 3 hrs followed by 54 J/cm2 light irradiation and measured after 10 days; assay type: organism-based; conditions: in vivo, 240 h, time 10 day
[31] = Drug localization in mitochondria of human HeLa cells at 5 uM incubated for 2 hrs by Mito-tracker green dye based confocal scanning microscopic analysis; assay type: ADME
[32] = Drug localization in endoplasmic reticulum of human HeLa cells at 5 uM incubated for 2 hrs by ER-Tracker blue dye based confocal scanning microscopic analysis; assay type: ADME, subcellular
MRC5 = assay: Cytotoxicity against human MRC5 cells in presence of 16 J/cm^2 light irradiation; assay type: functional, cell-based; conditions: MRC5, light or radiation study

Structure (SMILES) | IC50 at 3 h [1] [nM] | pIC50 (HepG2) | Ratio [2] | Activity [3] | Activity [4] | Stability [5] | pIC50 (HeLa [6]) | pIC50 (B16-F10) | Ratio [7] | Stability [8] | Stability [9] | IC50 at 3 h [10] [nM] | Activity [11] | Activity [12] | Stability [13] | IC50 at 3 h [14] [nM] | Activity (HeLa [20]) | also measured
CCN(CC)Cc1ccc(C2=C(I)C(c3ccc(OC)cc3)=[N+]3C2=Nc2c(-c4ccc(CN(CC)CC)cc4)c(I)c(-c4ccc(OC)cc4)n2[B-]3(F)F)cc1 | 28900 | 7.13 | 1.2 | 0.91 | 0.61 | Unstable | 7.29 | 7.13 | 1.23 | Unstable | Unstable | 26100 | 0.75 | 1.09 | Unstable | 49600 | – | –
CCN(CC)Cc1ccc(C2=C(I)C(c3ccc(OC)cc3)=[N+]3C2=Nc2c(-c4ccc(CN(CC)CC)cc4)cc(-c4ccc(OC)cc4)n2[B-]3(F)F)cc1 | > 50000 | 7.82 | 1.36 | 1.07 | 0.44 | Stable | 8.28 | 8.10 | 1.48 | Stable | Stable | > 50000 | 0.65 | 1.45 | Stable | > 50000 | Active | Drug uptake [15]: Active; Drug uptake [16]: Active; Drug uptake [17]: Active; Activity (HeLa [18]): 60%; Drug uptake [19]: Active; Activity [21]: Non-Toxic; Activity [22]: 0.05; Activity (HeLa [23]): Active; Drug uptake [24]: Tde; Drug uptake [25]: Not Active; Drug uptake [26]: Not Active; Drug uptake [27]: Active; Drug uptake [28]: Active
COc1ccc(C2=N/C(=N\c3[nH]c(-c4ccc(OC)cc4)cc3-c3ccccc3)C(c3ccccc3)=C2)cc1 | – | – | – | – | – | – | – | – | – | – | – | – | – | – | – | – | – | Activity [29]: 0.36
C=Cc1c(C)c2cc3nc(c(CC(=O)O)c4[nH]c(cc5nc(cc1[nH]2)C(C)=C5CC)c(C)c4C(=O)O)[C@@H](CCC(=O)O)[C@@H]3C [CHLORIN E6] | – | – | – | – | – | – | – | – | – | – | – | – | – | – | – | – | Active | Activity [30]: Toxic
COc1ccc(C2=[N+]3C(=Nc4c(-c5ccccc5)cc(-c5ccc(OC)cc5)n4[B-]3(F)F)C(c3ccccc3)=C2I)cc1 | > 50000 | 7.41 | 1.01 | 1.18 | 0.52 | – | 7.57 | 6.81 | 0.98 | – | Stable | > 50000 | 0.51 | 1.19 | – | > 50000 | Active | Drug uptake [31]: Not Active; Activity [21]: Non-Toxic; Drug uptake [32]: Not Active
CCN(CC)Cc1ccc(C2=C(Br)C(c3ccc(OC)cc3)=[N+]3C2=Nc2c(-c4ccc(CN(CC)CC)cc4)c(Br)c(-c4ccc(OC)cc4)n2[B-]3(F)F)cc1 | 23500 | 7.15 | 1.08 | 1.06 | 0.25 | Unstable | 7.35 | 7.68 | 2.6 | Unstable | Unstable | 22000 | 0.65 | 1.15 | Unstable | 33100 | – | pEC50 (MRC5): 8.24
CCN(CC)Cc1ccc(C2=C(I)C(c3ccc(OC)cc3)=[N+]3C2=Nc2c(-c4ccccc4)c(I)c(-c4ccc(OC)cc4)n2[B-]3(F)F)cc1 | 49400 | 6.88 | 1.13 | 0.87 | 0.58 | Unstable | 7.22 | 7.10 | 1.28 | Unstable | Unstable | > 50000 | 0.74 | 0.98 | Unstable | 49900 | – | –
CCN(CC)Cc1ccc(C2=C(I)C(c3ccc(OC)cc3)=[N+]3C2=Nc2c(-c4ccccc4)c4c(n2[B-]3(F)F)-c2ccc(OC)cc2CC4)cc1 | > 50000 | 7.85 | 1.44 | 0.84 | 0.44 | Stable | 8.17 | 7.82 | 1.16 | Stable | Stable | > 50000 | 0.51 | 1.21 | Stable | > 50000 | – | –
